Test [1] can be described thus: Inhibition of mouse PDL2 in mouse splenocytes assessed as rescue of splenocyte effector function.
Test [2] in a line: Inhibition of mouse PDL1 in mouse splenocytes assessed as rescue of splenocyte effector function.

SMILES strings stand for the structures.

For orientation: EC50 means the concentration that produces a half-maximal response. Take `C[C@@H](O)[C@H](NC(=O)N[C@@H](CC(N)=O)C(=O)NNC(=O)[C@@H](N)CO)C(=O)O`: the EC50 in test [1] came to 40 nM; in test [2], 30 nM.

The values above are taken from BindingDB's records for doi:10.1021/acs.jmedchem.8b00990 (China Pharmaceutical University, 2019).
